# According to PMC6340882, “Targeting protein kinase CK2 and CDK4/6 pathways with a multi-kinase inhibitor ON108110 suppresses pro-survival signaling and growth in mantle cell lymphoma and T-acute lymphoblastic leukemia” (Oncotarget, 2018):
# Assays:
# CDK4/CyclinD1 = CDK4/CyclinD1 (Homo sapiens, UniProt P11802); assay: Kinase panel profiling (Reaction Biology Corp); type: biochemical; details: CDK4/CyclinD1, kinase inhibition profile
# Description: (§1) Initial testing of ON108110 against a panel of 285 functional kinases was performed by Reaction Biology Corp (Malvern, PA). Recombinant CDK4/CYCLIN D1 or CK2α1 were mixed with their respective synthetic peptide substrates (10ng) and incubated with DMSO or increasing concentrations of ON108110 in 20μl kinase buffer [50mM Tris-HCl (pH 7.5), 10mM MgCl2, 1mM EGTA, 2mM DTT and 0.01% NP-40] for 30 min. at room temperature. Kinase reactions were carried out for 20 min at 30°C in the presence of 5μl of substrate-ATP mixture (1μg RB, 20μM ATP, 20μCi γ-^32P-ATP). The reactions were incubated at 30°C for 20 minutes, terminated by addition of 0.5M O-phosphoric acid and 10μl of the reaction mixture was spotted on P-30 Filtermat membranes (Wallac #1450-523). The filtermat was air-dried, blocked with methanol for 2 minutes followed by three washes with 75mM phosphoric acid. The filtermat was then air-dried and analyzed using a phosphoimager. Densitometric values were plotted as a function of log drug concentration using Prism 4 GraphPad software and the IC50 values determined by plotting sigmoidal non-linear regression curves with variable slope (n=3).
# CDK4/CyclinD3 = CDK4/CyclinD3 (Homo sapiens, UniProt P11802); assay: Kinase panel profiling (Reaction Biology Corp); type: biochemical; details: CDK4/CyclinD3, kinase inhibition profile
# Description: as §1
# CDK5/P25 = CDK5/P25 (Homo sapiens, UniProt Q00535); assay: Kinase panel profiling (Reaction Biology Corp); type: biochemical; details: CDK5/P25, kinase inhibition profile
# Description: as §1
# CDK6/CyclinD1 = CDK6/CyclinD1 (Homo sapiens, UniProt Q00534); assay: Kinase panel profiling (Reaction Biology Corp); type: biochemical; details: CDK6/CyclinD1, kinase inhibition profile
# Description: as §1
# CDK6/CyclinD3 = CDK6/CyclinD3 (Homo sapiens, UniProt Q00534); assay: Kinase panel profiling (Reaction Biology Corp); type: biochemical; details: CDK6/CyclinD3, kinase inhibition profile
# Description: as §1
# CK2α1 = CK2α1 (Homo sapiens, UniProt P68400); assay: Kinase panel profiling (Reaction Biology Corp); type: biochemical; details: CK2α1, kinase inhibition profile
# Description: as §1
# CK2α2 = CK2α2 (Homo sapiens, UniProt P19784); assay: Kinase panel profiling (Reaction Biology Corp); type: biochemical; details: CK2α2, kinase inhibition profile
# Description: as §1
# PIM3 = PIM3 (Homo sapiens, UniProt Q86V86); assay: Kinase panel profiling (Reaction Biology Corp); type: biochemical; details: PIM3, kinase inhibition profile
# Description: as §1
# recombinant CK2α1 = target: T1, recombinant CK2α1 (Homo sapiens, UniProt P68400); assay: Microscale thermophoresis (MST); type: binding; details: 16 concentrations 0.1nM-1000nM, average of 3 independent experiments
# T1 construct: Amino acid residues 3-335 of CK2α1 were cloned using BamH1 and HindIII into pET28bsmt3-SUMO fusion vector; SUMO (N); made in house; host or cells: Escherichia coli BL21-DE3 (RIL)
# Description: Purified His6-CK2α1 (kinase domain) was labeled with red NT-647 cysteine-reactive dye according to the manufacturer (NanoTemper Technologies). A fixed quantity of NT-647-labeled CK2α1 (50nM) was incubated with the indicated concentrations of ON108110 in binding buffer (20 mM Tris-HCl, pH 7.5, 150 mM NaCl, 1 mM MgCl2, 0.1% Triton X-100, and 2% DMSO) at room temperature in the dark for 30 min. Samples were then loaded into hydrophilic capillaries (NanoTemper Technologies) and binding was measured using the Monolith NT.115 (NanoTemper Technologies). Binding data were analyzed using thermophoresis or hot/cold analysis, as previously described prior to normalization to either ΔFnorm[%(10^*(Fnorm(bound)-Fnorm(unbound)) or fraction bound (ΔFnorm[%]/amplitude). Dissociation constants (Kd) were calculated using built-in curve-fitting software provided by the manufacturer (NanoTemper Technologies).
# [1] = system: CEM, HBL-2, RS4-11 and Granta-519 cells; assay: Apoptosis, Annexin V/DAPI staining; type: cell-based, human; details: 0.5-2.0 μM, 24 hours post-treatment
# Description: Figure 5 Modulation of cell cycle expression and induction of apoptosis in ON 108110-treated MCL and T-ALL cell lines (A) CEM and Granta-519 cells were treated with either DMSO or increasing concentrations of ON108110 (0.5-2.0μM) for 24 hours. Cell cycle analysis was performed using propidium iodide staining. (B) CEM, HBL-2, RS4-11 and Granta-519 cells were treated with either DMSO (vehicle) or increasing concentrations of ON108110 (0.5-2.0 μM) for 24 hours and stained with Annexin V/DAPI (C) Graphical representation of apoptosis induced as shown in B. (D) Granta-519 cells were treated with increasing concentrations of ON108110 for 24 hours. Caspase activation and viability were measured using the Caspase Glo 3/7 and Cell Titer Blue assay kits, respectively. […]
# To determine cell cycle distribution, 70% ethanol fixed cells were washed with phosphate buffered saline (PBS), resuspended in PBS and incubated with RNase and propidium iodide at 37°C for 20 min. DNA content was analyzed on a FACS Calibur (BD Immunocytometry Systems) and the data analyzed using Flowjo software (Treestar). Annexin V staining was measured using the FITC Annexin V Apoptosis Detection Kit I (BD Biosciences) according to the instructions of the manufacturer except that DAPI was substituted at a concentration of […] to measure DNA content.
# Sequence of CDK4/CyclinD1 (P11802 whole entry): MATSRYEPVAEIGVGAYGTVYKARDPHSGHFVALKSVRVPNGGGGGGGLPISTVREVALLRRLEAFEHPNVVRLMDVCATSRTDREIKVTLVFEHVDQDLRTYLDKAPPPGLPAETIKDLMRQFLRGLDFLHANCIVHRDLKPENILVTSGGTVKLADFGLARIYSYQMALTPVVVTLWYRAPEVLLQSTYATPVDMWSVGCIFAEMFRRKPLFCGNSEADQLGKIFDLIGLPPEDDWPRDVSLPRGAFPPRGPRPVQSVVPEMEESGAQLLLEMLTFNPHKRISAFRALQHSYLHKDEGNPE
# Sequence of CDK4/CyclinD1 (P24385 whole entry partner): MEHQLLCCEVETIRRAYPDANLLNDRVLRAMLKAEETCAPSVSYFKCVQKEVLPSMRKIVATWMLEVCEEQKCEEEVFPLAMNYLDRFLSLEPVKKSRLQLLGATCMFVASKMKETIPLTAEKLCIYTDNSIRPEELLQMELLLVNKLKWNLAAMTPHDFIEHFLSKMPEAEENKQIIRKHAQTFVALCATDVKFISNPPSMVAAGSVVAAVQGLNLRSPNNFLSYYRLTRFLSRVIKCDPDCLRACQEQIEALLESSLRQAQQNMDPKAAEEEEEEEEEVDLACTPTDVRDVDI
# Sequence of CDK4/CyclinD3 (P11802 whole entry): as the sequence (P11802 whole entry) above
# Sequence of CDK4/CyclinD3 (P30281 whole entry partner): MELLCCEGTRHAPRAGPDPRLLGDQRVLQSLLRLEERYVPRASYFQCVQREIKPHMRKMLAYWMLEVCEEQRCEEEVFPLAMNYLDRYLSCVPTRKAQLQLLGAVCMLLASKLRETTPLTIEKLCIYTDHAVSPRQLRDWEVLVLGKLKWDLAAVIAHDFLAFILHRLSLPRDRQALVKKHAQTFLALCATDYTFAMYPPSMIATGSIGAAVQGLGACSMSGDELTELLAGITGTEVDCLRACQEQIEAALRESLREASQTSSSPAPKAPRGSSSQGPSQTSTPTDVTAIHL
# Sequence of CK2α2 (P19784 whole entry): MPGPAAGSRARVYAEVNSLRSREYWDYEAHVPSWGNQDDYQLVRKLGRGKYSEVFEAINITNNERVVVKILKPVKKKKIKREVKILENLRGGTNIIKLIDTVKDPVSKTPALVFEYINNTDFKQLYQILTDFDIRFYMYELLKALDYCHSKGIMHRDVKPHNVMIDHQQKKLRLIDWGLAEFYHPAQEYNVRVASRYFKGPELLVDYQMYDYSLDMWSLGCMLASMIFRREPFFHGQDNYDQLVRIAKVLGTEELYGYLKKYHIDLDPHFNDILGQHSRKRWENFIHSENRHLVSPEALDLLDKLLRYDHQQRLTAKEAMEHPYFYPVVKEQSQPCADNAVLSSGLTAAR
# Sequence of CDK6/CyclinD3 (Q00534 whole entry): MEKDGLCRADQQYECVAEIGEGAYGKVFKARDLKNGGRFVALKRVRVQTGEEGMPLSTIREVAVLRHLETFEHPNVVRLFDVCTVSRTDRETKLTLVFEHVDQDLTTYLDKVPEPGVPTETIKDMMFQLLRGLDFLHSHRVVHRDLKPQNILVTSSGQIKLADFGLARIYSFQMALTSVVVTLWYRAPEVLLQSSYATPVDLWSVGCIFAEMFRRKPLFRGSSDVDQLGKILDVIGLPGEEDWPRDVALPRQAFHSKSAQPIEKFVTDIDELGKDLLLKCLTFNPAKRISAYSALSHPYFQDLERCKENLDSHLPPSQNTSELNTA
# Sequence of CDK6/CyclinD3 (P30281 whole entry partner): as the sequence (P30281 whole entry partner) above
# Sequence of CDK6/CyclinD1 (Q00534 whole entry): as the sequence (Q00534 whole entry) above
# Sequence of CDK6/CyclinD1 (P24385 whole entry partner): as the sequence (P24385 whole entry partner) above
# Sequence of CDK5/P25 (Q00535 whole entry): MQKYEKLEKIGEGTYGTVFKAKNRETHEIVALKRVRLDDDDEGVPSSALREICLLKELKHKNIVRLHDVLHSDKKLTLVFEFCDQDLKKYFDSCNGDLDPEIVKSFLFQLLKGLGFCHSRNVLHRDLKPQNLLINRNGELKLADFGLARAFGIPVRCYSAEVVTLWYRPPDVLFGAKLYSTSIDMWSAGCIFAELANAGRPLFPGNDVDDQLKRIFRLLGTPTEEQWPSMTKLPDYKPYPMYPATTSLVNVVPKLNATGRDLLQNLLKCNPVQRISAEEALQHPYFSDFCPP
# Sequence of CDK5/P25 (Q15078 99-307 partner limits assumed): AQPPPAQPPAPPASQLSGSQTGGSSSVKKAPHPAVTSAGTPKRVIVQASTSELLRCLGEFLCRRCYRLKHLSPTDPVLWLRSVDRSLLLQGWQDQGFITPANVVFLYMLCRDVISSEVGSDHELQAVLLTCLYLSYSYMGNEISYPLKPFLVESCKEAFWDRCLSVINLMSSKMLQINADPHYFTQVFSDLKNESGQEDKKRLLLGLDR
# Sequence of CK2α1 (P68400 whole entry): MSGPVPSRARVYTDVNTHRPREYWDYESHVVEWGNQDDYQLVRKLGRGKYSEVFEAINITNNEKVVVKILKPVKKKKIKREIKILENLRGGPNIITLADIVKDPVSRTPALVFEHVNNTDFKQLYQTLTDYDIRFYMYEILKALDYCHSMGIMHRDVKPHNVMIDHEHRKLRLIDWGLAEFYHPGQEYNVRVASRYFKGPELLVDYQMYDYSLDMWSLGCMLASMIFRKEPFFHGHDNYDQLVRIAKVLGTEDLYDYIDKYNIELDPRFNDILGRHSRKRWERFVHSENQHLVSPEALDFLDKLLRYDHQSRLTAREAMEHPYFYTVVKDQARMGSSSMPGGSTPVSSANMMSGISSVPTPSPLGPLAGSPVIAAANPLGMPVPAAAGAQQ
# T1 sequence (P68400 3-335): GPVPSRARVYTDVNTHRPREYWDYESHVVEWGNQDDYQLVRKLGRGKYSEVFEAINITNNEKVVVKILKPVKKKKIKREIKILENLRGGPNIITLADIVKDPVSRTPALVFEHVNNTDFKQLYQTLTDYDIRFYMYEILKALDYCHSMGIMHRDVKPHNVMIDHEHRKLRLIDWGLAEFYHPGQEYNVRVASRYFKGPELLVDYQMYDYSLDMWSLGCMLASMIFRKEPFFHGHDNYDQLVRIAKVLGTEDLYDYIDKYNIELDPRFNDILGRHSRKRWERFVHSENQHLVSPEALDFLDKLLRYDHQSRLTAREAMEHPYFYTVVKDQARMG
smiles,measurement,setting,value
CC(=O)Oc1ccc(/C=C2\Sc3ccc(F)cc3NC2=O)cc1[N+](=O)[O-] [ON108110],IC50,CDK4/CyclinD1,11 nM
same,IC50,CDK4/CyclinD3,15 nM
same,IC50,CDK5/P25,7 nM
same,IC50,CDK6/CyclinD1,2 nM
same,IC50,CDK6/CyclinD3,24 nM
same,IC50,CK2α1,3 nM
same,IC50,CK2α2,2 nM
same,IC50,PIM3,2 nM
same,Kd,recombinant CK2α1,2.5 nM
same,frequency of apoptotic cells (Annexin V),[1],concentration-dependent increase in the frequency of apoptotic cells
